Source: US8673856B2 (Anygen Co., Ltd., priority 2006, dated 2014)

Assays:
[1] = system: Sprague-Dawley male rats; details: rat, in vivo
[2] = system: ICR mice; details: mouse, in vivo
[3] = system: ICR mice; details: mouse, in vivo; remark: listed apart in the source
[4] = system: ICR mice; details: mouse, in vivo, ip
[5] = system: ICR mice; details: mouse, in vivo; remark: listed apart in the source
[6] = target: T1, human N-type calcium channel (Homo sapiens, UniProt Q00975); assay type: cell-based
T1 construct: expressed in transfected cells; host or cells: HEK 293 (human embryonic kidney) cells
T1 sequence (Q00975 whole entry, looked up): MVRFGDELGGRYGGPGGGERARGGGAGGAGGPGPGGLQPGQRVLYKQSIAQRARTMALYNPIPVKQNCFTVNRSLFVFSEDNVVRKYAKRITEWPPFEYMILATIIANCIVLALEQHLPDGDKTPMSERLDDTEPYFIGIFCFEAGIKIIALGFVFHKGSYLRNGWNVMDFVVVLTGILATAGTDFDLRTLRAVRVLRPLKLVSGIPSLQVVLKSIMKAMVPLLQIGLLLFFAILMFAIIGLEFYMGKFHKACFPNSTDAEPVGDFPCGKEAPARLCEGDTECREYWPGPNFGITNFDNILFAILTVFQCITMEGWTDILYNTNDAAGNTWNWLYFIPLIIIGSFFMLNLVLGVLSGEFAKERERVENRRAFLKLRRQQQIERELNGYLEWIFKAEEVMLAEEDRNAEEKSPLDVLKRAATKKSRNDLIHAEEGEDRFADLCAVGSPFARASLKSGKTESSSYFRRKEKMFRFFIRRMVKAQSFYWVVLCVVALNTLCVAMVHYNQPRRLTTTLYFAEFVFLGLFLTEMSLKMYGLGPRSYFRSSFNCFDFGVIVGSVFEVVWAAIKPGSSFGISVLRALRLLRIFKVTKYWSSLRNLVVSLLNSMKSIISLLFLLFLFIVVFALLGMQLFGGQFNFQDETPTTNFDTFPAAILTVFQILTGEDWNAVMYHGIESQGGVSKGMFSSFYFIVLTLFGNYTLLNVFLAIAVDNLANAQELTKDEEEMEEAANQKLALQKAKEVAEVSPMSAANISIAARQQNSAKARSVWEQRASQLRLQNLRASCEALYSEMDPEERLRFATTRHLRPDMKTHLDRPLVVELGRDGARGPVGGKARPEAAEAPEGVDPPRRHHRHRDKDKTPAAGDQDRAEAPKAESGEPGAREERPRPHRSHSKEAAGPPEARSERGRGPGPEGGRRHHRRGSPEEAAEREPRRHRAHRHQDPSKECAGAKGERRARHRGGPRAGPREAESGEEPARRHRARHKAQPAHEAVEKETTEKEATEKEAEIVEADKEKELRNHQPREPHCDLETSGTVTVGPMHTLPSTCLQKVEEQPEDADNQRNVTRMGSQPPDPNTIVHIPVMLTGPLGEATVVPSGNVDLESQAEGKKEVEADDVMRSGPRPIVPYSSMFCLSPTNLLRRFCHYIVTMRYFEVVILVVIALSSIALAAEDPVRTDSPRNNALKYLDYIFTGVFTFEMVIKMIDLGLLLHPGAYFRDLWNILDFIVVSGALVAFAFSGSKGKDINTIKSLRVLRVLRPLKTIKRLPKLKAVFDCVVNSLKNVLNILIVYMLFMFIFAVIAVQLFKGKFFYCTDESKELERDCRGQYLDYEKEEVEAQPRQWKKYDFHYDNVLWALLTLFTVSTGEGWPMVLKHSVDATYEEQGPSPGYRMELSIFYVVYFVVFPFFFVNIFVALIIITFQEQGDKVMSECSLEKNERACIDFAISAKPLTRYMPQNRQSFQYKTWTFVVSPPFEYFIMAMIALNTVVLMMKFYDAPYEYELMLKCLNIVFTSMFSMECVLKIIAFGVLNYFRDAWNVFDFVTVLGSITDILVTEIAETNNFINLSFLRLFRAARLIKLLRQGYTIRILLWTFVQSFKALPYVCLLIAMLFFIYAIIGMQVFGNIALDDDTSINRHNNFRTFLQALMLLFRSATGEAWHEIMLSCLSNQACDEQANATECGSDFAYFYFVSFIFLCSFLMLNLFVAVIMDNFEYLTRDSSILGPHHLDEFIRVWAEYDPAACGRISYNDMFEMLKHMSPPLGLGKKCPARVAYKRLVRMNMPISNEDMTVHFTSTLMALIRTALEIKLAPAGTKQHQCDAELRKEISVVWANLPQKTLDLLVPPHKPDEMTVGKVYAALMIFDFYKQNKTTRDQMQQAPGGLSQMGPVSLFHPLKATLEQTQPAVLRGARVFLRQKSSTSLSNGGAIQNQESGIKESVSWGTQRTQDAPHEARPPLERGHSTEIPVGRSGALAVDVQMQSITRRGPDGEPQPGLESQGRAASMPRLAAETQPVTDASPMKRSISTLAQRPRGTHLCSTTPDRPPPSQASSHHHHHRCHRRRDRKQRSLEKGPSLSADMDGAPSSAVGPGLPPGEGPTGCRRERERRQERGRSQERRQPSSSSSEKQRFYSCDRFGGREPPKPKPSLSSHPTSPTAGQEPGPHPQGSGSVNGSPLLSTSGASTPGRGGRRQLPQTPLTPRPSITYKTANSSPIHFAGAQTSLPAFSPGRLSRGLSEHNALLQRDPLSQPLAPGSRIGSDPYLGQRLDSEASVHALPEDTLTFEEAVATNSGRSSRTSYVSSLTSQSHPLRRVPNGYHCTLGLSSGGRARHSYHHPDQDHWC

[7] = system: Sprague-Dawley male rats; details: rat, in vivo; remark: listed apart in the source
[8] = target: T1, human N-type calcium channel; assay type: cell-based; remark: listed apart in the source
[9] = system: ICR mice; details: mouse, in vivo; remark: listed apart in the source
[10] = system: Sprague-Dawley male rats; details: rat, in vivo; remark: listed apart in the source
[11] = system: ICR mice; details: mouse, in vivo; remark: listed apart in the source
[12] = system: Sprague-Dawley male rats; details: rat, in vivo, iv

Compound	Analgesic effect on cold allodynia [1]	Withdrawal latency, tail-flick test [2]	Cumulative pain response, formalin test [3]	Dose dependence of analgesic effect, formalin test [3]	Pain behaviors in the second phase, formalin test [3]	Count of writhing responses [4]	Cumulative pain response, glutamate-induced [5]	Current-voltage curve [6]	IC50 ([6]; read-out: IC50 from dose-inhibition curve) [nM]	50% withdrawal threshold, mechanical allodynia [7]	Dissociation on washout [8]	Cumulative pain response, substance P-induced [9]	Analgesic effect on warm allodynia [10]	Withdrawal latency, plantar test [11]	Mean arterial pressure (MAP) time course [12]	Arterial pressure after lapse of time [12]	Calcium channel blocking activity [6]	Recovery relative to MVIIA [8] [fold]
CC[C@H](C)[C@@H]1NC(=O)[C@H](CCCNC(=N)N)NC(=O)[C@H](CO)NC(=O)[C@@H]2CSSC[C@@H]3NC(=O)[C@H](CO)NC(=O)CNC(=O)[C@H]([C@@H](C)O)NC(=O)[C@H](CSSC[C@H](N)C(=O)N[C@@H](CCCCN)C(=O)NCC(=O)N[C@@H]([C@@H](C)O)C(=O)NCC(=O)N[C@@H](CCCCN)C(=O)N[C@@H](CO)C(=O)N2)NC(=O)[C@H](CSSC[C@@H](C(N)=O)NC(=O)[C@H](CCCCN)NC(=O)CNC(=O)[C@H](CO)NC(=O)[C@H](CCCNC(=N)N)NC3=O)NC(=O)[C@H](CC(N)=O)NC(=O)[C@H](Cc2ccc(O)cc2)NC(=O)[C@H](C)NC1=O [FVIA, CKGTGKSCSRIAYNCCTGSCRSGKC-NH2]	exhibits analgesic effects on cold and warm allodynia	not effective in increasing withdrawal latency	significantly decreased cumulative pain response rate in both the first phase and the second phase	analgesic effect in a dose-dependent manner	completely prevented pain behaviors in the second phase	significantly decreased	significantly decreased cumulative pain response rate	curve inhibition without the horizontal curve shift	11.5 ± 1.4	elevate 50% withdrawal threshold in a dose dependent manner	better dissociation comparing MVIIA washout	significantly decreased cumulative pain response rate	exhibits analgesic effects on cold and warm allodynia	not effective in increasing withdrawal latency	much better recovery in MAP			
CSCC[C@@H]1NC(=O)[C@H](CC(C)C)NC(=O)[C@H](CCCNC(=N)N)NC(=O)[C@H](CO)NC(=O)[C@@H]2CSSC[C@@H]3NC(=O)[C@H](CO)NC(=O)CNC(=O)[C@H]([C@@H](C)O)NC(=O)[C@H](CSSC[C@H](N)C(=O)N[C@@H](CCCCN)C(=O)NCC(=O)N[C@@H](CCCCN)C(=O)NCC(=O)N[C@@H](C)C(=O)N[C@@H](CCCCN)C(=O)N2)NC(=O)[C@H](CSSC[C@@H](C(N)=O)NC(=O)[C@H](CCCCN)NC(=O)CNC(=O)[C@H](CO)NC(=O)[C@H](CCCNC(=N)N)NC3=O)NC(=O)[C@H](CC(=O)O)NC(=O)[C@H](Cc2ccc(O)cc2)NC1=O [MVIIA, CKGKGAKCSRLMYDCCTGSCRSGKC-NH2]															sharp decrease in MAP at an initial stage and slow recovery in MAP	around 60 mmHg		
CKGKGAKCSRIAYNCCTGSCRSGKC-NH2 [Chimera-MFMM]																	significant calcium channel blocking activity	~2
